Entries after “also recorded” stand apart in the source; their conditions may differ. Read-outs that look alike come from different tables or passages of the source.
Assays:
[1] = tested on: primary human CD4 T-lymphocytes; experiment: Cell hyperproliferation in primary T cells (CFSE staining, mitotic index); format: cell-based; settings: for anti-proliferative activity (in words) / mitotic index %: SPPs 10 μM, Imatinib 10 μM; for anti-proliferative activity (in words): compared with HU 100 μM, HU+ddI or untreated control; for decrease/inhibition of cell proliferation compared to not treated control: SPPs and Imatinib 10 μM; for decrease/inhibition of cell proliferation compared to not treated control / mitotic index %: HU 100 μM; for mitotic index %: % of not treated control (100%), day 10; for Anti-proliferative capacity: class symbol, Table 6
Description: We built up an experimental model using primary T cells to study the activity of the compounds on induced hyperproliferation of cells, which is a characteristic of both chronic viral diseases and cancer including HIV and leukemia.
(§1) Unstimulated (quiescent/resting, day 0 to 5) primary human CD4 T-lymphocytes were obtained by magnetic bead separation from healthy, normal donors. After five days in culture, cells were activated with PHA (5 μg/ml) to induce hyperproliferation then, at day 7, IL-2 (20 U/ml) was added (stimulated, day 6 to 10). All available compounds were tested at a concentration of 10 μM. […] At day 10, cells were harvested. Proliferation of T cells, cultured as described above, was studied by staining the cells with carboxyfluorescein diacetate-succinimidyl ester (CFSE) at day 0 (immediately after infection). For data analysis, the mitotic index (M) was used, calculating the sum of mitotic events at each proliferation cycle. To extract a relative number, M was normalized to the total number of cells acquired using the equation M=Σ[(Xn(T)−Xn(T)/2^n)], that gives the number of mitotic events from the experimentally obtained values of the proportion of T cells under each division peak n (Xn) and the total T cells (T). To study the effect of the compounds on apoptosis T cells were cultured as described above and at day 10 cells were stained with Annexin V and 7-AAD, in order to determine the percentage of total apoptotic events.

[2] = tested on: Human peripheral blood mononuclear cells (PBMC); settings: 7 days
[3] = tested on: primary human CD4 T-lymphocytes; experiment: Apoptosis in primary CD4 T cells (Annexin V and 7-AAD staining); format: cell-based; settings: for apoptotic effect (in words) / apoptosis %: SPPs 10 μM; for apoptotic effect (in words): compared with HU 100 μM, HU+ddI or untreated control; for apoptosis %: total apoptotic events compared to untreated control, day 10, Imatinib 10 μM, HU 100 μM, ddI 2 μM
Description: as §1
We determined the capacity of the compounds to affect the percentages of apoptotic events after 10 days of treatment in primary CD4 T cells.

HIV-1 NL 4.3 [4] = experiment: HIV-1 replication in activated T cells (PBMC, p24 Ag ELISA); format: cell-based; settings: for inhibition at 10 µM: Human immunodeficiency virus 1, T-cell, read-out: inhibition of p24 production / HIV replication compared to untreated control; for inhibition at 10 µM / HIV activated cells (% p24 compared to not treated control): activated T cells; for anti-HIV activity in activated T cells (in words): SPPs 10 μM, compared with HU 100 μM, HU+ddI or untreated control; for HIV activated cells (% p24 compared to not treated control): 7 days, SPPs and Imatinib 10 μM, HU 100 μM, ddI 2 μM; for Antiviral activity in activated cells: class symbol, Table 6
Description: The experimental setup described below allows us to detect direct antiviral activity of a compound.
Human PBMC, obtained from healthy, normal donors, were stimulated for two days with PHA 5 μg/ml. Then cells were infected with HIV-1 NL 4.3, IL-2 was added (20 U/ml), cells were plated (10^5 cells per well in 200 μl) and drug treatment started. […] The control was left untreated. After 7 days of incubation at 37° C. supernatants were harvested and HIV-1 p24 Ag was measured by ELISA.

HIV-1 NL 4.3 [5] = experiment: HIV-1 replication in quiescent CD4 T cells (p24 Ag ELISA); format: cell-based; settings: for inhibition at 10 µM: Human immunodeficiency virus 1, CD4+ T, quiescent cells, read-out: reduction of HIV-1 p24 production / inhibition of HIV replication compared to untreated control; for anti-HIV activity in quiescent cells (in words) / HIV quiescent cells (percentage p24 compared to the untreated control): SPPs 10 μM; for anti-HIV activity in quiescent cells (in words): compared with HU 100 μM, HU+ddI or untreated control; for HIV quiescent cells (percentage p24 compared to the untreated control): quiescent CD4 T cells, day 10, HU 100 μM, HU 100 μM+ddI 2 μM; for Antiviral activity in quiescent cells: class symbol, Table 6
Description: Unstimulated (quiescent/resting, day 0 to 5) human CD4 T-lymphocytes, obtained by magnetic bead separation from healthy, normal donors, were infected with HIV-1 NL 4.3. After five days in culture, cells were stimulated with PHA (5 μg/ml) to induce proliferation, and then, at day 7, IL-2 (20 U/ml) was added (stimulated, day 6 to 10). All available compounds were tested at a concentration of 10 μM. HU 100 μM and HU 100 μM+ddI 2 μM were also employed as comparators and the negative control was left untreated. At day 10, cells and supernatants were harvested and HIV-1 p24 Ag was measured by ELISA. HIV replication was expressed as percentage p24 compared to the untreated control.

[6] = tested on: Human peripheral blood mononuclear cells (PBMC); experiment: Cell cycle analysis of anti-CD3/anti-CD28 stimulated PBMC (Ki-67 and 7-AAD flow cytometry); format: cell-based; settings: 24 hours treatment; compared to the not treated control; FIG. 6
Description: A 48 well plate was coated with anti-CD3 antibody by dispensing 100 microliter of a 10 μg/ml antibody solution followed by overnight incubation at 4° C. Human peripheral blood mononuclear cells (PBMC), obtained from healthy, normal donors, were then plated (2×10^6 cells per well in 1 ml) in complete culture medium supplemented with anti-CD28 antibody (2 μg/ml). Stimulated cells were cultured for 2 days then treated with HU, CsA, and VS1-002 to induce cell cycle arrest.

[7] = % of not treated control (100%), SPPs 10 μM, Imatinib 10 μM, HU 100 μM, HU 100 μM+ddI 2 μM

Row | SMILES | anti-proliferative activity (in words) [1] | % viability ([2]; human, 10 μM) | apoptotic effect (in words) [3] | inhibition at 10 µM (HIV-1 NL 4.3 [4]) | anti-HIV activity in activated T cells (in words) (HIV-1 NL 4.3 [4]) | inhibition at 10 µM (HIV-1 NL 4.3 [5]) | anti-HIV activity in quiescent cells (in words) (HIV-1 NL 4.3 [5]) | Anti-proliferative capacity [1] | Antiviral activity in activated cells (HIV-1 NL 4.3 [4]) | Antiviral activity in quiescent cells (HIV-1 NL 4.3 [5]) | other results
1 | ClC(Cn1ncc2c(NCc3ccccc3)ncnc21)c1ccccc1 (centres unmarked) [VS1-010, N-benzyl-1-(2-chloro-2-phenylethyl)-1H-pyrazolo[3,4-d]pyrimidin-4-amine] | increased anti-proliferative capacity compared to 100 μM HU | 40.9 ± 35.8% | induced apoptosis; also recorded: more proapoptotic; also recorded: slight increase | 88% | active as antivirals; also recorded: good activity against HIV | 89% | active as antivirals; also recorded: good activity against HIV | – | – | – | more anti-proliferative than HU+ddI ([1]; 10 μM, spider graph FIG. 3): 20%; decrease/inhibition of cell proliferation compared to not treated control [1]: 99%
2 | CCN(CC)c1nc(SC)nc2c1cnn2CC(Cl)c1ccccc1 (centres unmarked) [VS1-032] | comparable or even greater than HU | – | – | – | – | – | – | – | – | – | mitotic index % [1]: 22.0 ± 14.5%; % viability [2, 7]: 99.1 ± 3.7%; apoptosis % [3]: 131.8 ± 58.6%; HIV activated cells (% p24 compared to not treated control) (HIV-1 NL 4.3 [4]): 59.3 ± 8.1%; HIV quiescent cells (percentage p24 compared to the untreated control) (HIV-1 NL 4.3 [5]): 19.7 ± 7.2%
3 | CSc1nc(NCc2ccccc2)c2cnn(CC(Cl)c3ccccc3)c2n1 (centres unmarked) [VS1-003, 1-(2-chloro-2-phenylethyl)-6-(methylthio)-N-benzyl-1H-pyrazolo[3,4-d]pyrimidin-4-amine] | slightly less potent; also recorded: little inferior anti-proliferative capacity compared to HU; also recorded: somewhat less than that of VS1-002 | 103.4 ± 4.0% | no effect on apoptosis; also recorded: did not affect the percentage of apoptotic events; also recorded: did not induce apoptosis | 76% | slightly less potent; also recorded: slightly inferior anti-HIV capacity; also recorded: about as effective as VS1-002 | 95% | about as effective as VS1-002 | ++ (good (++, 50 to 70% activity)) | +++ (excellent (+++, greater than 70% activity)) | +++ (excellent (+++, greater than 70% activity)) | –
4 | NC(=O)NO [HU, hydroxyurea, reference compound] | did substantially decrease cell proliferation | – | no significant increases; also recorded: did not substantially affect the percentage of total apoptotic events | – | not effective in inhibiting HIV replication | – | potent antiviral activity | – | – | – | inhibition at 100 µM ([1]; Homo sapiens, T-lymphocyte, read-out: decrease/inhibition of cell proliferation compared to not treated control): 74%; effect on cell cycle phases (in words) [6]: decreased the percentage of cells in S phase with an increase in the percentage of cells in G1 phase
5 | OCCNc1nc(NCc2ccccc2)c2cnn(C=Cc3ccccc3)c2n1 [VS1-015] | – | – | – | – | better anti-HIV activity than HU | – | – | – | – | – | mitotic index % [1]: 55.4 ± 6.0%; % viability [2, 7]: 82.0 ± 5.8%; apoptosis % [3]: 63.9 ± 9.2%; HIV activated cells (% p24 compared to not treated control) (HIV-1 NL 4.3 [4]): 15.3 ± 2.4%; HIV quiescent cells (percentage p24 compared to the untreated control) (HIV-1 NL 4.3 [5]): 7.6 ± 2.8%
6 | CSc1nc(NCCc2ccccc2)c2cnn(C=Cc3ccccc3)c2n1 [VS1-005, 1-styryl-6-methylthio-N-(2-phenylethyl)-1H-pyrazolo[3,4-d]pyrimidin-4-amine] | slightly lower compared to HU | 84.3 ± 22.7% | did not induce apoptosis; also recorded: no effect on apoptosis; also recorded: did not affect the percentage of apoptotic events | – | active also against HIV in activated T cells; also recorded: same antiviral power; also recorded: same antiviral activity | 97% | strong anti-HIV activity; also recorded: same antiviral power | – | – | – | anti-proliferative capacity less than HU+ddI ([1]; 10 μM, spider graph FIG. 3): 50%; decrease/inhibition of cell proliferation compared to not treated control [1]: 27%
7 | CSc1nc(NCCc2ccccc2)c2cnn(CC(Cl)c3ccccc3)c2n1 (centres unmarked) [VS1-004, 1-(2-chloro-2-phenylethyl)-6-(methylthio)-N-(2-phenylethyl)-1H-pyrazolo[3,4-d]pyrimidin-4-amine] | as anti-proliferative as 100 μM HU; also recorded: as effective as HU+ddI; also recorded: as effective as 100 μM HU | 74.9 ± 13.8% | only induced a small apoptotic effect; also recorded: same level; also recorded: slight increase | 88% | good antiviral potency; also recorded: as effective as HU+ddI | 93% | good antiviral potency; also recorded: as effective as HU+ddI | +++ (excellent (+++, greater than 70% activity)) | +++ (excellent (+++, greater than 70% activity)) | +++ (excellent (+++, greater than 70% activity)) | –
8 | CCCCNc1nc(SCC)nc2c1cnn2CC(Cl)c1ccccc1 (centres unmarked) [VS1-002, N-butyl-1-(2-chloro-2-phenylethyl)-6-(ethylthio)-1H-pyrazolo[3,4-d]pyrimidin-4-amine] | as effective as 100 μM HU; also recorded: comparable to that of 100 μM HU and superior to that of Imatinib | 108.9 ± 8.7% | did not affect the percentage of apoptotic events; also recorded: not proapoptotic | 86% | inhibited HIV replication in activated T cells | 90% | antiviral activity in both quiescent and in hyperactivated cells | +++ (excellent (+++, greater than 70% activity)) | +++ (excellent (+++, greater than 70% activity)) | +++ (excellent (+++, greater than 70% activity)) | less toxicity than HU 100 μM+ddI 2 μM combination ([2]; human, 10 μM): 20%; less proapoptotic effect than HU 100 μM+ddI 2 μM combination ([3]; 10 μM, spider graph FIG. 3): more than 20%; effect on cell cycle phases (in words) [6]: decreased the percentage of cells in S phase with an increase in the percentage of cells in G1 phase
